We go through 6 compounds from paper PMC11596563, “N-Aryl Benzimidazole and Benzotriazole Derivatives and Their Hybrids as Cytotoxic Agents: Design, Synthesis and Structure–Activity Relationship Studies” (Molecules, 2024).

Where only a bound is given, the exact number is not on record here.

One data set relates to A549. The experiment in a line: MTT test, cytotoxic effect. Conditions: Homo sapiens, 24 h treatment, 0.1 to 100 µM, concentration that causes 50% cell death. The format is cell-based.
Another data set relates to MCF-7. The experiment in a line: MTT test, cytotoxic effect. It is filed as cell-based. The conditions noted are these: Homo sapiens, MCF7, 24 h treatment, 0.1 to 100 µM, concentration that causes 50% cell death.
Another data set has as its system SW-480. In words: MTT test, cytotoxic effect. The format is cell-based. The conditions noted are these: Homo sapiens, SW480, 24 h treatment, 0.1 to 100 µM, concentration that causes 50% cell death.
Data set [1] in a line: MTT test, cytotoxic effect on cells of normal origin. The format is cell-based, human. The conditions noted are these: human, Hek-293 cells (normal origin), 24 h treatment, 0.1 to 100 µM, normal cells, concentration that causes 50% cell death.
Description: (§1) At the first stage of biological testing, we studied the effect of the synthesized compounds on the survival of cells of both tumoral and normal origin. […] In our work, the cytotoxic profile of the synthesized molecules was assessed using the MTT test, based on the ability of a colorless tetrazolium salt (3-[4,5-dimethylthiazol-2-yl]-2,5-diphenyltetrazolium bromide, MTT) to be reduced to colored formazan in the presence of the mitochondrial enzymes of living cells. For this purpose, a number of cell lines of tumoral origin (SH-SY5Y, A549, MCF-7 and SW-480), as well as normal origin (Hek-293), were used.
For the experiments, we used tumor cell cultures SH-SY5Y, human neuroblast-like cells, A549, human lung adenocarcinoma, MCF-7, human mammary adenocarcinoma, SW-480 and human colorectal adenocarcinoma, as well as cells of normal origin obtained from human embryonic kidneys, Hek-293.
(§2) All cells were cultured in the Dulbecco Modified Eagle’s Medium (DMEM) with a high glucose content, 10% fetal bovine serum and 1% penicillin-streptomycin as an antibiotic, in a moist incubator with 5% CO2 at 37°C.
(§3) To measure cellular metabolic activity, a colorimetric analysis was performed using the MTT reagent (3-(4,5–dimethylthiazol-2-yl)-2,5-diphenyltetrazolium bromide), which is an inhibitor of viable cells [73, 74].
• Briefly, cells in the logarithmic growth phase were digested and resuspended to adjust the cell density. The cells were then seeded in 96-well plates at a density of 10,000 cells per well. After 24 h of the incubation of the cells under the standard conditions described above (for the purpose of cell adhesion), the cells were treated with the synthesized compounds at different concentrations (0.1 to 100 µM) or a vehicle alone as a control (1% DMSO) for 24 h. After the incubation time of the cells with synthesized compounds, 5 mg/mL of MTT was added to the cells and incubated for 2 h at 37 °C. Next, the supernatant was discarded; after that, the formazan crystals were dissolved in a DMSO and the absorbance of each well was measured at 570 nm using a multifunctional microplate reader, Cytation3 (Biotech Tools Inc., Winooski, USA).
The subject of another data set is Hek-293. Described as above. It is filed as cell-based, human. The conditions noted are these: Hek-293.
For data set [2], the system named is Fe(II)-induced lipid peroxidation (LPO) of rat brain homogenate. The experiment in a line: Fe(II)-induced lipid peroxidation, modified TBARS test. Conditions: Fe(II) 500 μM, rat brain homogenate 2 mg/mL; for IC50: 1 to 300 μM, read-out: IC50 of the lipid peroxidation inhibitory effect; for decrease in the level of malondialdehyde: compounds at 100 μM. The format is biochemical. The procedure: In our work, the antioxidant status of the compounds was determined by their ability to influence the process of Fe(II)-induced lipid peroxidation (LPO) of rat brain homogenate (2 mg/mL). The effect of the substances on LPO was studied using a modified version of the TBA test in a plate format. This test is based on the reaction of 2-thiobarbituric acid with intermediate LPO products, resulting in the formation of a colored trimethine complex, the main role in the formation of which belongs to malondialdehyde. […] This was expressed in a decrease in the level of malondialdehyde in the system by 70, 79 and 71%, respectively, tending to the values of the well-known antioxidant Trolox. Additionally, the IC50 values of the lipid peroxidation inhibitory effect were calculated for these molecules, the values of which are presented in Figure 2B.
To obtain rat brain homogenate, an animal previously anesthetized in a CO2 chamber was decapitated using a guillotine. The brain was homogenized in a buffer containing KCl (120 mM) and HEPES (20 mM), pH = 7.4 at 4 ° C and centrifuged at 1500 g to obtain a supernatant.
The intensity of the lipid peroxidation of the rat brain homogenate was evaluated using a modified TBARS test. […] In the wells of the negative control, the Fe(II) was replaced with water; in samples with a positive control, a solvent was introduced instead of the studied compounds.
At the end of incubation, a TBA reagent ([…] thiobartituric and 1% trichloroacetic acids dissolved in 0.25 N HCl) was added to each well and heated at 90 °C for 90 min.

The test system of the next data set is A549 cells. In words: Wound-healing assay (scratch test). It is filed as cell-based, human. Conditions: 1 μM; for migration capacity, decrease in the scratch width vs control: 24 h after the damage. From the text: It is also well known that migration and proliferation of cancer cells are key processes involved in the metastatic cascade of malignant neoplasms. In turn, the ability of therapeutic agents to inhibit these processes is considered a promising property of antitumor agents. In this regard, in order to assess the possible antimetastatic potential of cytotoxic diphenylamines 6b, c and d, we analyzed the effect of the substances on the migration and proliferation of tumor cells A549 in a scratch test.
Based on a preliminary series of experiments, 1 μM was chosen as the concentration used in this test, excluding the intrinsic cytotoxic effect of the substances. […] Thus, the data obtained 24 h after the damage was applied allowed us to evaluate the migration capacity of the cells, minimizing the contribution of cell proliferation.
The migration activity of A549 cells was determined by the wound-healing assay (scratch test). To do this, cells (15,000 cells per well) were seeded in a 96-well plate and cultured under the standard conditions described above. After 24 h of incubation, when the cells became 90% confluent, the medium was selected and an identical scratch wound across the center of each well was made by a 200 µL pipette tip.
To remove detached cells, the cell monolayer was washed twice with PBS; after that, the growth media and test compounds at 1 µM (or 1% DMSO as a solvent) were added to each well. A phase contrast microscope at a ×40 magnification was used to take photomicrographs after making the wound and then 24 h, 48 h and 72 h later.
The analysis of the obtained images was calculated using the open-source program ImageJ [80] and a special module: Wound_healing_size_tool.

The test system of another data set is SH-SY5Y. The experiment in a line: cells. Conditions: Homo sapiens, 24 h, read-out: IC50 of the cytotoxic effect, SH-SY5Y.
In data set [3] the test system is all the tested cell lines (SH-SY5Y, A549, MCF-7, SW-480, Hek-293). The experiment in a line: MTT test, summary over all tested cell lines. The format is cell-based, human. The conditions noted are these: MTT, range of concentrations studied (0.1 to 100 µM).
Description: as §1
(§4) For the experiments, we used tumor cell cultures SH-SY5Y, human neuroblast-like cells, A549, human lung adenocarcinoma, MCF-7, human mammary adenocarcinoma, SW-480 and human colorectal adenocarcinoma, as well as cells of normal origin obtained from human embryonic kidneys, Hek-293. The cell lines were obtained from the collection of the Institute of Cytology, Russian Academy of Sciences (St. Petersburg, Russia).
as §2, §3
(§5) • Briefly, cells in the logarithmic growth phase were digested and resuspended to adjust the cell density. The cells were then seeded in 96-well plates at a density of 10,000 cells per well. […] Next, the supernatant was discarded; after that, the formazan crystals were dissolved in a DMSO and the absorbance of each well was measured at 570 nm using a multifunctional microplate reader, Cytation3 (Biotech Tools Inc., Winooski, USA).
A short description of data set [4]: MTT test, summary over all tested cell lines. It is filed as cell-based, human. The conditions noted are these: human; all cells, including those of normal origin, Hek-293; read-out: IC50 values of the cytotoxic effect, range over all cells.
Description: as §1, §4, §2, §3, §5

With `CCOC(=O)c1ccc(Nc2cc(C(F)(F)F)ccc2-n2nnc3ccccc32)c(N)c1` [6c, Ethyl 3-amino-4-[2-(1H-benzotriazol-1-yl)-5-(trifluoromethyl)anilino]benzoate], the melting point was 178 to 181 °C. In the data set with A549, half-maximal inhibition (IC50) was put at 37.68 ± 0.2 µM. Besides, half-maximal inhibition with MCF-7 (IC50) was put at 77.05 ± 0.67 µM. For the same compound, the IC50 in the data set with SW-480 is no less than 100 µM. The compound also registered an IC50 at 24 h in data set [1] of no less than 100 µM. Besides, in the data set on Hek-293, the “cytotoxic effect on cell line of normal origin” value is reported as “did not exert a cytotoxic effect”. For the same compound, in [2], the IC50 was 1110 ± 130 nM and the “decrease in the level of malondialdehyde” value came to 79%. In addition, the “migration capacity, decrease in the scratch width vs control” value (“migration capacity, decrease” for short) with A549 cells is recorded as “did not find any differences”. Moreover, the “ability to suppress the migratory activity of A549 tumor cells” value in the data set on A549 cells (conclusion) is “failed to demonstrate the ability to suppress the migratory activity”. Also, the IC50 in the data set with SH-SY5Y turned out to be 20.94 ± 0.13 µM.
Regarding `Nc1cc(C(F)(F)F)ccc1Nc1cc(C(F)(F)F)ccc1-n1cnc2ccccc21` [6a, N-[2-(1H-benzimidazol-1-yl)-5-(trifluoromethyl)phenyl]-2-amino-4-(trifluoromethyl)aniline], the melting point lay within 205 to 207 °C. For the same compound, the IC50 in the data set with A549 was no less than 100 µM. The compound also showed an IC50 with MCF-7 of no less than 100 µM. In the data set on SW-480, this compound showed a half-maximal inhibitory concentration (IC50) of no less than 100 µM. In addition, in [1], the IC50 at 24 h is no less than 100 µM. Further, in data set [3], the “toxic effect on the tested cell lines” value is reported as “not toxic”. The concentration for half-maximal inhibition (IC50) in the data set on SH-SY5Y was no less than 100 µM.
`Nc1cc(C(F)(F)F)ccc1Nc1cc(C(F)(F)F)ccc1-n1nnc2ccccc21` [6b, N-[2-(1H-benzotriazol-1-yl)-5-(trifluoromethyl)phenyl]-2-amino-4-(trifluoromethyl)aniline] returned a melting point of 170 to 173 °C. The compound also yielded an IC50 in the data set with A549 of 26.28 ± 0.02 µM. In the data set on MCF-7, this compound returned an IC50 of 23.29 ± 0.12 µM. This compound also registered a 50% inhibitory concentration (IC50) with SW-480 of 25.09 ± 0.24 µM. In data set [1], this compound returned an IC50 at 24 h of 22.4 ± 0.41 µM. The IC50 at 24 h in [4] was 22 to 26 µM. For the same compound, in [2], the IC50 worked out at 1680 ± 80 nM and the “decrease in the level of malondialdehyde” value amounted to 70%. Further, the “unhealed defect area remaining from the original vs control” value with A549 cells (48 and 72 h) is given as “significantly increase”. In addition, in the data set on A549 cells, the “migration capacity, decrease” value is recorded as “did not find any differences”. Moreover, the “proliferation coefficient of cells vs control” value in the data set with A549 cells (A549) is on record as “significant decrease”. Moreover, in the data set on SH-SY5Y, the IC50 is 25.98 ± 0.17 µM.
In the case of `Cc1c(C)c2c(c(C)c1O)CCC(C)(C(=O)O)O2` (stereo not drawn) [Trolox, reference compound], in [2], the IC50 turned out to be 32450 ± 240 nM.
In turn, `Nc1cc(C(F)(F)F)ccc1-n1nnc2ccccc21` [4c, 2-(1H-benzotriazol-1-yl)-5-(trifluoromethyl)aniline] displayed a melting point of 136 to 139 °C. In the data set with A549, the IC50 was 65.38 ± 0.17 µM. The compound also registered a concentration for half-maximal inhibition (IC50) in the data set with MCF-7 of 75.2 ± 1.43 µM. Further, the IC50 in the data set with SW-480 was no less than 100 µM. Besides, the IC50 at 24 h in data set [1] was no less than 100 µM. Besides, the “cytotoxic effect on cell line of normal origin” value with Hek-293 is given as “without affecting the survival”. Further, the half-inhibitory concentration (IC50) with SH-SY5Y was 39.59 ± 0.05 µM.
In turn, `Nc1cc(C(F)(F)F)ccc1Nc1cc(Cl)ccc1-n1nnc2ccccc21` [6d, N-[2-(1H-benzotriazol-1-yl)-5-chlorophenyl]-2-amino-4-(trifluoromethyl)aniline] came in with a melting point of 191 to 194 °C. In addition, the IC50 in the data set on A549 stood at 41.4 ± 0.79 µM. For the same compound, the IC50 in the data set on MCF-7 came out at 33.8 ± 0.64 µM. In addition, the IC50 in the data set with SW-480 is 40.38 ± 0.01 µM. Moreover, in data set [1], the 50% inhibitory concentration (IC50) at 24 h is 41.39 ± 0.05 µM. For the same compound, the concentration for half-maximal inhibition (IC50) at 24 h in data set [4] is 31 to 41 µM. For the same compound, in data set [2], the half-maximal inhibitory concentration (IC50) was determined as 2400 ± 50 nM and the “decrease in the level of malondialdehyde” value was 71%. In the data set on A549 cells, the “migration capacity, decrease” value is listed as “did not find any differences”. For the same compound, the IC50 with SH-SY5Y came to 31.56 ± 0.07 µM.
